Source: article PMC8921165, “Preclinical characterization of [^18F]T-008, a novel PET imaging radioligand for cholesterol 24-hydroxylase” (European Journal of Nuclear Medicine and Molecular Imaging, 2021)

Assays:
[1] = target: T1, Cholesterol 24-hydroxylase (CH24H) (Mus musculus, UniProt Q9WVK8); assay: [3H]T-008 saturation radioligand binding; autoradiography in WT vs CH24H KO mouse brain sections
T1 construct: gene Cyp46a1

[2] = target: T2, Cholesterol 24-hydroxylase (CH24H) (Macaca mulatta, UniProt A0A5F7ZPE8); assay: in vivo PET enzyme occupancy, displacement of […]T-008 in rhesus brain
T2 construct: gene CYP46A1
T2 sequence (A0A5F7ZPE8 1-500): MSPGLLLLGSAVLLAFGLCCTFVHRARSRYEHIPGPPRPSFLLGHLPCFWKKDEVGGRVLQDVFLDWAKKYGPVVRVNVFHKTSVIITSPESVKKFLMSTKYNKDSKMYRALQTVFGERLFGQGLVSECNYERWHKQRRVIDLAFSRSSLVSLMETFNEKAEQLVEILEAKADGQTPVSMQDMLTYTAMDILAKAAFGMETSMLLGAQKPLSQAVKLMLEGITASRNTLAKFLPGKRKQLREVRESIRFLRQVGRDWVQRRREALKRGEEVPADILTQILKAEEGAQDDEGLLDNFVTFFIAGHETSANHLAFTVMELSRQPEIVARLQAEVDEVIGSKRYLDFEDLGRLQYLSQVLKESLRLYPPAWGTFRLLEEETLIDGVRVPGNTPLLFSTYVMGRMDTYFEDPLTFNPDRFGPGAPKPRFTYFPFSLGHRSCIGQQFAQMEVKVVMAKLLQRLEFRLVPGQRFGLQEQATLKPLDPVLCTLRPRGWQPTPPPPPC

T1 sequence (Q9WVK8 whole entry): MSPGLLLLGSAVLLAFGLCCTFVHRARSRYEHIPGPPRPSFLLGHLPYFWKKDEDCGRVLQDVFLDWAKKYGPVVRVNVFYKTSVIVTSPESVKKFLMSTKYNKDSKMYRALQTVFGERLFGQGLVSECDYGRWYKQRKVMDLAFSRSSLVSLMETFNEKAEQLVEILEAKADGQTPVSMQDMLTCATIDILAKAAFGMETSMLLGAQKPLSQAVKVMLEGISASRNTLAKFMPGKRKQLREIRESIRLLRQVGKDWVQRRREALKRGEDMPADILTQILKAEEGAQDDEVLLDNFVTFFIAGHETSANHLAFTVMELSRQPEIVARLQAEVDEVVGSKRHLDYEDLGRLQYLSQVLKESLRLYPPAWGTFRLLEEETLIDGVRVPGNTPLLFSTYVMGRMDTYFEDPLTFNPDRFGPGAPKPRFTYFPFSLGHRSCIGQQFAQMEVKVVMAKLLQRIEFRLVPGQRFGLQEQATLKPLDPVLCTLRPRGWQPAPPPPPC

| Kd [1] [nM] | Compound | EC50 [2] [nM] |
| --- | --- | --- |
| 14 ± 1 | O=C(C1CCN(c2cncnc2-c2ccc(F)cc2)CC1)N1CC(F)C1 [T-008, (3-fluoroazetidin-1-yl){1-[4-(4-fluorophenyl)pyrimidin-5-yl]piperidin-4-yl}methanone] |  |
|  | O=C(c1cccnc1-c1ccncc1)N1CCC(O)(Cc2ccccc2)CC1 [soticlestat, (4-benzyl-4-hydroxypiperidin-1-yl)(2,4′-bipyridin-3-yl) methanone] | 3.39 |
